Source: ChEMBL document CHEMBL1123907 (J Med Chem, 1987)

Key:
[1] = Binding affinity against imipramine receptor was determined in homogenized rat cortex tissue using [3H]-imipramine as radioligand
[2] = molecular target: Muscarinic acetylcholine receptor; experiment: Binding affinity against Muscarinic acetylcholine receptor was determined in homogenized rat cortex tissue using [3H]N-methylscopolamine as radioligand

SMILES | Ki [1] | Ki [2]
CN(C)CCC(=O)N1c2ccccc2C(=O)Nc2cccnc21 | > 100000 nM | 45 nM
CN1CCN(CC(=O)N2c3ccccc3NC(=O)c3ccccc32)CC1 | > 100000 nM | 23 nM
CN(C)CCC(=O)N1c2ccccc2NC(=O)c2ccccc21 | > 100000 nM | 6 nM
CN1CCN(CC(=O)N2c3ccccc3CCc3ccccc32)CC1 | > 100000 nM | 200 nM
CN(C)CCCN1c2ccccc2C(=O)Nc2cccnc21 | 15000 nM | 200 nM
CN(C)CCCN1c2ccccc2NC(=O)c2ccccc21 | 4000 nM | 50 nM
CN(C)CCC(=O)N1c2ccccc2CCc2ccccc21 | 400 nM | 240 nM
CN(C)CCCN1c2ccccc2CCc2ccccc21 [IMIPRAMINE] | 12 nM | 65 nM
CN1CCN(CC(=O)N2c3ccccc3C(=O)Nc3cccnc32)CC1 [PIRENZEPINE] | > 100000 nM | 
